What was measured:
[1] = Tolerability and body weight in the hamster mucositis study; assay type: in vivo, hamsters
Method: Fifty-six (56) male Syrian Golden Hamsters were used in the study. Mucositis was induced by administering an acute radiation dose of 40 Gy directed to the left buccal cheek pouch on Day 0 at a rate of 2-2.5 Gy/min. Mucositis was evaluated clinically starting on Day 6 and continuing on alternate days until Day 28. Hamsters reaching a mucositis severity score of 4 or higher received buprenorphine (0.5 mg/kg) SC twice a day for 48 hours or until score dropped below 4.
Dosing was scheduled as follows: for animals in Groups 1-4, animals were dosed with RRx-001 (1, 3, or 10 mg/kg) or vehicle (1:2 DMA:PEG400 vol:vol ratio) once a day (QD) on Days −4, −1, 1, 4, 7, 11, 14, 18, 21, and 25 via intraperitoneal (IP) administration; animals in Groups 5-7 were dosed QD with RRx-001 (1, 3, or 10 mg/kg) on Days −4, −1, 1, 8, 15, and 22.
Dosing of all other groups continued as scheduled. Upon study conclusion, on Day 28, Animals were euthanized via CO2 inhalation and death was confirmed by monitoring heartbeat in accordance with USDA guidelines.

SOD-1 = test: Western blot of SOD-1 in U937 macrophages; assay type: cell-based, human; conditions: 3 mM RRx-001 for 16 hours, sham and irradiated groups
Method: (§1) Expression of ARE proteins was assayed in hMSC, macrophages, and monocytes following in vitro irradiation of the cells, which were pretreated with RRx-001 or vehicle. Protein expression was assayed by Western blotting and protein quantification.
(§2) hMSC were treated for 16 hours with […] RRx-001 or the vehicle control (0.05% DMSO), irradiated at 10 Gy or sham-irradiated and the protein collected 8 or 24 hours post-sham or irradiation. Human monocytic leukemic THP-1 and U937 cells were differentiated into macrophages with 50 nM Phorbol 12-myristate 13-acetate (PMA) for 24 hours before treatment. Differentiated and non-differentiated cells were treated with […] RRx-001 or 0.05% DMSO (vehicle control) for 16 hours prior to radiation. The cells were irradiated at 5 Gy or sham-irradiated and collected 4-8 hours later for both analysis. For each experiment, duplicates of each sample were run.

heme oxygenase 1 (HO-1) = test: Western blot of ARE protein expression in hMSC: HO-1; assay type: cell-based, human; conditions: 5 mM RRx-001 for 16 hours
Method: Antioxidant response element (ARE) genes such as heme oxygenase 1 (HO-1), NAD(P)H Dehydrogenase [Quinone] 1 (NQO-1) and Superoxide Dismutase (SOD) are involved in the detoxification and elimination of reactive oxidants.
as §1, §2

CD2F1 male mice = test: Complete blood count with differential and reticulocytes after sublethal TBI or sham irradiation; assay type: in vivo
Method: To determine the pathophysiological effects of RRx-001 on hematopoietic protection in mice, CD2F1 male mice were treated with 10 mg/kg RRx-001 or the vehicle control 24 hours prior to a sublethal dose of TBI (7 Gy at 0.6 Gy/min using High-level Cobalt-60) or sham irradiation (day 0) according to the table below.
CD2F1 male mice (n=3/group) were divided into 4 experimental groups: 1) irradiation+vehicle, 2) irradiation+RRx-001, 3) sham-irradiation+vehicle and 4) sham-irradiation+RRx-001. Either 10 mg/kg RRx-001 or the vehicle control were IP injected 24 hours prior to either irradiation or sham-irradiation (day 0). On days 2, 7, 14, 21, and 28 post-irradiation (day 0) mice were humanely euthanized. Blood, bone marrow, and sternebrae were then collected. This experiment was performed in duplicate for a total of n=6 mice/group/time point.
Post-irradiation whole blood was obtained by terminal cardiocentesis. Blood samples were immediately transferred into EDTA tubes (Sarstedt Inc., Newton, N.C.) and gently rotated until the time of analysis. The tubes were analyzed for a complete blood count with differential and reticulocytes using the ADVIA 2120 (Siemens Medical Solutions Diagnostics, Dublin, Ireland), and Microsoft software version 5.9 (Microsoft Corp., Redmond, Wash.) to generate the data.
Blood parameters were compared between treatment groups using an analysis of variance (ANOVA). The Wilcoxon test was also used for sensitivity and to potentially address data departures from normality. A longitudinal mixed model repeated measures was also implemented to provide a more complete data analysis of the sham-irradiated treatment groups' difference in overall time profile mean based on the blood parameters. Bone marrow data (megakaryocytes and grade) statistical analysis was carried out using a parametric test consisting of a general linear model analysis of variance (ANOVA with factors consisting of treatment group and pathologist) and the Kruskal-Wallis nonparametric test. The statistical data analysis was carried out using R software (Version 3.4.3, 2016) and the graphs made using GraphPad Prism version 7.03 (GraphPad Software, La Jolla, Calif.).

[2] = 7 Gy TBI, decrease below sham controls on days 7 and 14
[3] = days 2 and 21 post-irradiation (7 Gy TBI)

O=C(CBr)N1CC([N+](=O)[O-])([N+](=O)[O-])C1 [RRx-001, 2-bromo-1-(3,3-dinitroazetidin-1-yl)ethan-1-one]
body weight ([1]; Groups 2 and 5 (10 mg/kg)): lower weights than all other groups | body weight after cessation of dosing ([1]; Groups 2 and 5 (10 mg/kg), in line with other groups by study termination): weight slowly recovered | body weight ([1]; animals other than Groups 2 and 5 (1 and 3 mg/kg), duration of the study): steadily gained weight | tolerability ([1]; highest dose 10 mg/kg IP, Groups 2 and 5, dosing discontinued after Day 1): adverse side effects | SOD-1 expression (SOD-1): no change | increase in HO-1 expression (heme oxygenase 1 (HO-1); 24 hours post-sham or irradiation): 2-3.5 fold | increase in HO-1 expression (heme oxygenase 1 (HO-1); sham and 10 Gy irradiated groups, 8 hours post-sham or irradiation): 22-26 fold | % HCT compared to the irradiated control (CD2F1 male mice; 7 Gy TBI, day 14): significantly increased levels | ALC counts compared to the controls (CD2F1 male mice; 7 Gy TBI, day 14): significantly increased | WBC counts compared to the controls (CD2F1 male mice; 7 Gy TBI, day 14): significantly increased | % RETIC compared to control mice (CD2F1 male mice; 7 Gy TBI, day 14, returned to baseline levels): significantly increased | % RETIC compared to the vehicle controls (CD2F1 male mice; 7 Gy TBI, day 28): significantly increased | ANC compared to the control (CD2F1 male mice; 7 Gy TBI, days 7 and 14): significantly increased | PLT compared to the control (CD2F1 male mice; 7 Gy TBI, days 7 and 14): significantly increased | hemoglobin, irradiated RRx-001 vs irradiated vehicle (CD2F1 male mice; [2]): not significantly different | red blood cells, irradiated RRx-001 vs irradiated vehicle (CD2F1 male mice; [2]): not significantly different | absolute lymphocyte count (ALC) vs vehicle control (CD2F1 male mice; [3]): No significant difference | absolute neutrophil count (ANC) vs vehicle control (CD2F1 male mice; [3]): No significant difference | percent hematocrit (% HCT) vs vehicle control (CD2F1 male mice; [3]): No significant difference | percent reticulocytes (% RETIC) vs vehicle control (CD2F1 male mice; [3]): No significant difference | platelets (PLT) vs vehicle control (CD2F1 male mice; [3]): No significant difference | white blood cells (WBC) vs vehicle control (CD2F1 male mice; [3]): No significant difference | platelets, overall mean over time (standard error) (CD2F1 male mice; sham-irradiated, 10 mg/kg IP, longitudinal mixed model repeated measures): 1067.73 (32.26) | difference in the overall mean of platelets over time vs vehicle (CD2F1 male mice; sham-irradiated, least-square means, p=0.01): statistically significant difference in the least-square means in favor of RRx-001-treatment
